Results reported in PubChem BioAssay AID330 (DTP/NCI, 2004).
Where “and” joins values, the source holds several entries; their conditions need not be identical. Equal values may be shown once. Inconclusive results and toxic doses are left out.

Tested on: P388 leukemia ip, CD2F1 mice, survival T/C
Experiment: NCI In Vivo Anticancer Drug Screen. Data for tumor model P388 Leukemia (intraperitoneal) in CD2F1 (CDF1) mice
Settings: endpoint: median survival time, higher = longer survival
Method in brief: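 Mice carrying the transplanted tumor received test compound or vehicle. Survival was recorded in each group, and the value is the treated-group measurement divided by that of the vehicle-treated control group.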

[1] = dose: 25.0 mg/kg/injection, schedule: Q01DX009 (ip), vehicle: saline with Tween-80
[2] = dose: 50.0 mg/kg/injection, schedule: Q01DX009 (ip), vehicle: saline with Tween-80
[3] = dose: 100.0 mg/kg/injection, schedule: Q01DX009 (ip), vehicle: saline with Tween-80
[4] = dose: 6.25 mg/kg/injection, schedule: Q01DX009 (ip), vehicle: water
[5] = dose: 12.5 mg/kg/injection, schedule: Q01DX009 (ip), vehicle: water
[6] = dose: 25.0 mg/kg/injection, schedule: Q01DX009 (ip), vehicle: water
[7] = dose: 50.0 mg/kg/injection, schedule: Q01DX009 (ip), vehicle: Klucel (hydroxypropylcellulose) (HPC)
[8] = dose: 100.0 mg/kg/injection, schedule: Q01DX009 (ip), vehicle: Klucel (hydroxypropylcellulose) (HPC)

Nc1nc(SCc2ccccc2)c2ncn(CCCl)c2n1
T/C (dose: 0.78 mg/kg/injection, schedule: Q01DX009 (ip), vehicle: saline): 97 % of control
T/C (dose: 1.56 mg/kg/injection, schedule: Q01DX009 (ip), vehicle: saline): 101 % of control
T/C (dose: 3.12 mg/kg/injection, schedule: Q01DX009 (ip), vehicle: saline): 105 % of control
T/C (dose: 6.25 mg/kg/injection, schedule: Q01DX009 (ip), vehicle: saline): 102 % of control and 95 % of control
T/C (dose: 6.25 mg/kg/injection, schedule: Q01DX009 (ip), vehicle: suspension in saline): 103 % of control
T/C (dose: 25.0 mg/kg/injection, schedule: Q01DX009 (ip), vehicle: saline): 100 % of control
T/C (dose: 50.0 mg/kg/injection, schedule: Q01DX009 (ip), vehicle: saline): 111 % of control
T/C (dose: 50.0 mg/kg/injection, schedule: Q01DX009 (ip), vehicle: suspension in saline): 94 % of control

C=C1C(O)C2OC3(CCC(/C=C/C(C)C4CC5(C)SC5C5(OC(CC(C)(O)C(=O)O)CCC5O)O4)O3)CCC2OC1C(O)CC(C)C1OC2(CCCCO2)CCC1C (configuration not stated)
T/C (dose: 1.87 micrograms/kg/injection, schedule: Q01DX005 (ip), vehicle: saline + alcohol): 102 % of control and 103 % of control
T/C (dose: 3.75 micrograms/kg/injection, schedule: Q01DX005 (ip), vehicle: saline + alcohol): 103 % of control and 120 % of control and 93 % of control
T/C (dose: 7.5 micrograms/kg/injection, schedule: Q01DX005 (ip), vehicle: saline + alcohol): 100 % of control and 103 % of control
T/C (dose: 15.0 micrograms/kg/injection, schedule: Q01DX005 (ip), vehicle: saline + alcohol): 111 % of control

CCOC(=O)C1(N=O)CCCCC1=O (configuration not stated)
T/C (dose: 100.0 mg/kg/injection, schedule: Q01DX001 (ip), vehicle: alcohol): 103 % of control
T/C (dose: 200.0 mg/kg/injection, schedule: Q01DX001 (ip), vehicle: alcohol): 97 % of control
T/C (dose: 400.0 mg/kg/injection, schedule: Q01DX001 (ip), vehicle: alcohol): 108 % of control

CCc1c(-c2ccccc2)[nH]c2ccccc12
T/C [1]: 105 % of control
T/C (dose: 50.0 mg/kg/injection, schedule: Q01DX009 (ip), vehicle: saline + alcohol): 116 % of control
T/C [2]: 100 % of control
T/C (dose: 100.0 mg/kg/injection, schedule: Q01DX009 (ip), vehicle: saline + alcohol): 112 % of control
T/C [3]: 115 % of control
T/C (dose: 200.0 mg/kg/injection, schedule: Q01DX009 (ip), vehicle: saline + alcohol): 103 % of control
T/C (dose: 400.0 mg/kg/injection, schedule: Q01DX009 (ip), vehicle: saline + alcohol): 108 % of control

COc1ccc(-c2cc(-c3ccccc3)[nH]c(=O)c2C#N)cc1
T/C (dose: 12.5 mg/kg/injection, schedule: Q01DX009 (ip), vehicle: acid diluted with saline): 101 % of control
T/C (dose: 25.0 mg/kg/injection, schedule: Q01DX009 (ip), vehicle: acid diluted with saline): 99 % of control
T/C (dose: 50.0 mg/kg/injection, schedule: Q01DX009 (ip), vehicle: acid diluted with saline): 101 % of control

COC(=O)c1[nH]c(=O)c(C#N)c(C(=O)OC)c1C(=O)c1ccc(Cl)c(Cl)c1
T/C (dose: 60.0 mg/kg/injection, schedule: Q01DX005 (ip), vehicle: Klucel (hydroxypropylcellulose) (HPC)): 100 % of control
T/C (dose: 120.0 mg/kg/injection, schedule: Q01DX005 (ip), vehicle: Klucel (hydroxypropylcellulose) (HPC)): 107 % of control
T/C (dose: 240.0 mg/kg/injection, schedule: Q01DX005 (ip), vehicle: Klucel (hydroxypropylcellulose) (HPC)): 100 % of control

CCc1nc(N)nc(N)c1-c1ccc(NC(C)c2ccccc2)c([N+](=O)[O-])c1 (configuration not stated)
T/C (dose: 3.75 mg/kg/injection, schedule: Q01DX005 (ip), vehicle: Klucel (hydroxypropylcellulose) (HPC)): 101 % of control
T/C (dose: 7.5 mg/kg/injection, schedule: Q01DX005 (ip), vehicle: Klucel (hydroxypropylcellulose) (HPC)): 101 % of control and 107 % of control
T/C (dose: 15.0 mg/kg/injection, schedule: Q01DX005 (ip), vehicle: Klucel (hydroxypropylcellulose) (HPC)): 112 % of control and 113 % of control

CC(O)(c1ccccc1)C(CCl)N1CCCCC1 (configuration not stated)
T/C [2]: 100 % of control
T/C [3]: 105 % of control
T/C (dose: 200.0 mg/kg/injection, schedule: Q01DX009 (ip), vehicle: saline with Tween-80): 105 % of control

COc1cc(OC)c2c(O)c3c(=O)cc(C)oc3c(-c3c4cc(OC)cc(OC)c4c(O)c4c(=O)cc(C)oc34)c2c1
T/C (dose: 12.5 mg/kg/injection, schedule: Q01DX005 (ip), vehicle: Klucel (hydroxypropylcellulose) (HPC)): 114 % of control
T/C (dose: 25.0 mg/kg/injection, schedule: Q01DX005 (ip), vehicle: Klucel (hydroxypropylcellulose) (HPC)): 100 % of control
T/C (dose: 50.0 mg/kg/injection, schedule: Q01DX005 (ip), vehicle: Klucel (hydroxypropylcellulose) (HPC)): 96 % of control
T/C (dose: 100.0 mg/kg/injection, schedule: Q01DX005 (ip), vehicle: Klucel (hydroxypropylcellulose) (HPC)): 100 % of control
T/C (dose: 200.0 mg/kg/injection, schedule: Q01DX005 (ip), vehicle: Klucel (hydroxypropylcellulose) (HPC)): 90 % of control
T/C (dose: 400.0 mg/kg/injection, schedule: Q01DX005 (ip), vehicle: Klucel (hydroxypropylcellulose) (HPC)): 97 % of control

CN(C)CC(CN(C)C)C(=O)c1ccc(Oc2ccc(Cl)cc2)cc1
T/C (dose: 1.88 mg/kg/injection, schedule: Q01DX005 (ip), vehicle: saline): 110 % of control
T/C (dose: 3.75 mg/kg/injection, schedule: Q01DX005 (ip), vehicle: saline): 116 % of control
T/C (dose: 7.5 mg/kg/injection, schedule: Q01DX005 (ip), vehicle: saline): 107 % of control and 112 % of control

O=NNc1cncc(Sc2ccccc2)n1
T/C (dose: 3.12 mg/kg/injection, schedule: Q01DX009 (ip), vehicle: water): 97 % of control
T/C [4]: 94 % of control
T/C [5]: 101 % of control
T/C (dose: 25.0 mg/kg/injection, schedule: Q01DX008 (ip), vehicle: water): 116 % of control
T/C [6]: 107 % of control
T/C (dose: 50.0 mg/kg/injection, schedule: Q01DX008 (ip), vehicle: water): 120 % of control
T/C (dose: 50.0 mg/kg/injection, schedule: Q01DX009 (ip), vehicle: water): 92 % of control

COc1ccc2nc(N)sc2c1
T/C (dose: 12.5 mg/kg/injection, schedule: Q01DX009 (ip), vehicle: Klucel (hydroxypropylcellulose) (HPC)): 97 % of control
T/C (dose: 12.5 mg/kg/injection, schedule: Q01DX009 (ip), vehicle: saline with Tween-80): 111 % of control
T/C (dose: 25.0 mg/kg/injection, schedule: Q01DX009 (ip), vehicle: Klucel (hydroxypropylcellulose) (HPC)): 99 % of control
T/C [1]: 111 % of control
T/C [7]: 107 % of control
T/C [2]: 120 % of control
T/C [8]: 107 % of control

CCN1CCCC(Nc2cc(C)nc(/N=C(/N)Nc3ccc(Cl)c(Cl)c3)n2)C1 (configuration not stated)
T/C (dose: 3.13 mg/kg/injection, schedule: Q01DX009 (ip), vehicle: water): 93 % of control
T/C [4]: 97 % of control
T/C [5]: 107 % of control and 97 % of control
T/C [6]: 101 % of control

COc1ccc(CCNC(=O)c2c3nc4c(C(=O)NCCc5ccc(OC)cc5)ccc(C)c4oc-3c(C)c(=O)c2N)cc1
T/C (dose: 50.0 mg/kg/injection, schedule: Q04DX003 (ip), vehicle: DMSO): 98 % of control
T/C (dose: 100.0 mg/kg/injection, schedule: Q04DX003 (ip), vehicle: DMSO): 100 % of control
T/C (dose: 200.0 mg/kg/injection, schedule: Q04DX003 (ip), vehicle: DMSO): 98 % of control

CC[C@@]1(O)C(=O)OCc2c1cc1n(c2=O)Cc2cc3c(OC)cccc3nc2-1
T/C (dose: 0.39 mg/kg/injection, schedule: Q04DX003 (ip), vehicle: other): 115 % of control
T/C (dose: 1.0 mg/kg/injection, schedule: Q01DX009 (ip), vehicle: saline with Tween-80): 217 % of control
T/C (dose: 1.5 mg/kg/injection, schedule: Q01DX009 (ip), vehicle: saline with Tween-80): 181 % of control and 192 % of control
T/C (dose: 2.25 mg/kg/injection, schedule: Q01DX009 (ip), vehicle: saline with Tween-80): 100 % of control
T/C (dose: 3.0 mg/kg/injection, schedule: Q01DX009 (ip), vehicle: saline with Tween-80): 103 % of control
T/C (dose: 3.13 mg/kg/injection, schedule: Q04DX003 (ip), vehicle: other): 191 % of control
T/C (dose: 6.25 mg/kg/injection, schedule: Q04DX003 (ip), vehicle: other): 90 % of control

COC(=O)[C@]12C(=O)C=CC(=O)C1CC=CC2C(OC(C)=O)C(COC(C)=O)OC(C)=O (some centres not stated)
T/C (dose: 100.0 mg/kg/injection, schedule: Q01DX001 (ip), vehicle: saline with Tween-80): 103 % of control
T/C (dose: 200.0 mg/kg/injection, schedule: Q01DX001 (ip), vehicle: saline with Tween-80): 100 % of control
T/C (dose: 400.0 mg/kg/injection, schedule: Q01DX001 (ip), vehicle: saline with Tween-80): 103 % of control

Cc1ncc(C(O)CCC2OCCO2)n1Cc1ccccc1 (configuration not stated)
T/C [7]: 96 % of control
T/C [8]: 98 % of control
T/C (dose: 200.0 mg/kg/injection, schedule: Q01DX009 (ip), vehicle: Klucel (hydroxypropylcellulose) (HPC)): 98 % of control
